Consider three compounds from paper PMC9403029, “Identifying Novel Drug Targets by iDTPnd: A Case Study of Kinase Inhibitors” (Genomics, Proteomics & Bioinformatics, 2021).

In general, pIC50 refers to the negative decadic logarithm of the IC50, by convention in mol/L.

For one series, the system named is CYP2E1. Further details: method as in earlier work. Particulars: FDA Orange Books ref 65, 66; cited from earlier work.
For a further series, the system named is CYP2A6. Also on record: method as in earlier work. Particulars: FDA Orange Books ref 65, 66; cited from earlier work.
In a further series the test system is CYP1A2. Further details: method as in earlier work. Particulars: FDA Orange Books ref 65, 66; cited from earlier work.
The next series addresses T1, ERα (Homo sapiens, UniProt P03372).
T1 sequence (P03372 1-595): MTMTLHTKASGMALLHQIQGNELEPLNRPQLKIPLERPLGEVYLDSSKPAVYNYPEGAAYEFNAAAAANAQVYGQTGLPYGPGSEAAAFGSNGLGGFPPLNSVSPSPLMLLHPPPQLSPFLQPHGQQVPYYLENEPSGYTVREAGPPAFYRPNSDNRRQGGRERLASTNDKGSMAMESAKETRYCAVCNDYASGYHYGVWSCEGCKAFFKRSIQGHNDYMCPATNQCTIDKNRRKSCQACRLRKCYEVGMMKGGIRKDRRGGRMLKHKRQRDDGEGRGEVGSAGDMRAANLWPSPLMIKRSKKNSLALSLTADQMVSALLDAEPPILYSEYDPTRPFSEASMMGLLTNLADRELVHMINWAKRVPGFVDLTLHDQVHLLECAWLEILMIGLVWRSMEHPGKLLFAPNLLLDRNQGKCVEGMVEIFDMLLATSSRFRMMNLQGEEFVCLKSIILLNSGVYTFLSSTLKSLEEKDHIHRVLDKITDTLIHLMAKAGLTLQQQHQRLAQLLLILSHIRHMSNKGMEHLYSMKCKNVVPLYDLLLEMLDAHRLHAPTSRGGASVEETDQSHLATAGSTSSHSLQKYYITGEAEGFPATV
Particulars: MST.

pIC50: −log10 of the molar value.

For `Cc1nc(Nc2ncc(C(=O)Nc3c(C)cccc3Cl)s2)cc(N2CCN(CCO)CC2)n1` [Dasatinib, dasatinib], the pIC50 is below 4.30 in the series on CYP2E1 and 4.46 in the series with CYP2A6.

With `Cc1ccc(Nc2nccc(N(C)c3ccc4c(C)n(C)nc4c3)n2)cc1S(N)(=O)=O` [Pazopanib, pazopanib], the pIC50 with CYP1A2 is 4.80.

Turning to `CNC(=O)c1cc(Oc2ccc(NC(=O)Nc3ccc(Cl)c(C(F)(F)F)c3)cc2)ccn1` [Sorafenib, sorafenib], the “interaction with ERα at detectable levels” value on ERα is “did not interact”.
